Assay results: EP4467137A1, “TREATMENT OF FRONTOTEMPORAL DEMENTIA OR FRONTOTEMPORAL LOBAR DEMENTIA” (Universidad Autónoma de Madrid, priority 2023, dated 2024)

System: hyperphosphorylated tau
Assay: Hyperphosphorylated tau (AT8 immunofluorescence) in primary neurons treated with AAV-hTauP301L
Assay type: cell-based, mouse
Conditions: treatment every other day for 8 days, compound 1 at 30 µM

## COc1ccc2c(c1)CC(c1c[nH]c3ccc(OC)cc13)N2 (stereo not shown) [Compound 1, 5-Methoxy-3-(5-methoxyindolin-2-yl)-1H-indole]
  AT8 intensity levels: reduced
